Here are results for four compounds from patent publication US12186286B2 (Paracelsus Neuroscience II, LLC, priority 2019, dated 2025).

Entries after “also recorded” stand apart in the source; their conditions may differ. Read-outs that look alike come from different tables or passages of the source.

The target of one data set is T1, human KCa3.1 (Homo sapiens, UniProt O15554).
T1 construct: expressed in transfected cells
Conditions: human KCa3.1 expressed in recombinant cells; read-out: In-vitro IC50 (nM)*; cited from earlier work.

For data set [1] the following is noted: cited from earlier work; for free brain concentration / free plasma concentration / Cerebrospinal fluid (CSF) concentration: 10 mg/kg oral; for brain concentration / plasma concentration: 40 mg/kg i.p.
Data set [2] concerns primary rat cortical microglia. Briefly: NO (nitrite) release from LPS-treated primary microglia. Format: cell-based. Conditions: LPS 3 EU/ml, 24 hours. As for the experimental part: (§1) FIG. 4A and FIG. 4B. Effect of KCa3.1 inhibition on NO and IL-1β release from primary microglia. […] (B) Primary rat cortical microglia were incubated with LPS (3 EU/ml) for 24 hours to induce expression of IL-1β.
(§2) After 24 hours, media was assayed for nitrite (stable metabolite of NO). […] Primary rat cortical microglia were also treated with LPS (3 EU/ml, 3 hours) to stimulate the production of pro-IL-1β.

In data set [3] the test system is primary rat cortical microglia. The data set can be described thus: IL-1β release from primary microglia. Format: cell-based. As for the experimental part: as §1, §2
The nature of data set [4]: Pharmacokinetics and CNS penetration in mouse. It counts as in vivo. On the procedure:
Since experimental surgery-related inflammation is resolved seven days […] the animals are tested, it supported the hypothesis that the efficacy was mediated by inhibition of KCa3.1 on microglia in the spinal cord or brain rather than peripheral immune cells. […] Based on the rat and mouse pharmacokinetic data CNS penetrance in humans seems promising.

For data set [5] the following is noted: clinical trials; cited from earlier work.
The subject of data set [6] is cytochrome P450-dependent enzymes. Conditions: cited from earlier work.
In data set [7] the test system is ~70 additional neuronal drug targets (50 neuronal receptors, 8 enzymes, 5 transporters and 7 ion channels). Conditions: cited from earlier work.
In data set [8] the test system is mechanical hypersensitivity induced by peripheral nerve injury. Conditions: rat, 10, 30 and 100 mg/kg p.o., only the highest dose significant; cited from earlier work.
The next data set deals with locomotor activity. Conditions: rat, doses required for efficacy in the chronic constriction injury model; cited from earlier work.
For data set [9] the following is noted: clinical trials, healthy volunteers and sickle cell patients; cited from earlier work.
Data set [10] has as its system sickle cell disease. Conditions: Phase 2, 10 mg/day, sickle cell patients; cited from earlier work.
Data set [11] concerns sickle cell disease. Conditions: Phase 3, sickle cell patients, cited from earlier work.
For data set [12] the following is noted: primates; cited from earlier work.
In the next data set the target is T2, human CYP2B6 (Homo sapiens, UniProt P20813).
T2 sequence (P20813 1-491): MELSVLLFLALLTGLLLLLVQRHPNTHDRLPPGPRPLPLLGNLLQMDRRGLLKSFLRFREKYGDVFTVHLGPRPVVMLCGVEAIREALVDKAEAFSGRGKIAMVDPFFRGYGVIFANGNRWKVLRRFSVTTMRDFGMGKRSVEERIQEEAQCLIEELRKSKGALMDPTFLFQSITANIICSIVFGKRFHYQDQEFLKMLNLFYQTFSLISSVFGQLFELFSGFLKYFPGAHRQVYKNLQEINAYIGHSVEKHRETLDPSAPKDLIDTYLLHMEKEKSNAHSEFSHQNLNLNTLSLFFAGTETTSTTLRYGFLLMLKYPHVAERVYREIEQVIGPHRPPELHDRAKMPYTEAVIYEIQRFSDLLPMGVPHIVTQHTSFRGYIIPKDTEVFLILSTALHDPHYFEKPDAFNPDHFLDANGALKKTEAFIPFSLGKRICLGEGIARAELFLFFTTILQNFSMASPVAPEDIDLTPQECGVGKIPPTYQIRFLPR
Conditions: cited from earlier work.

In a further data set the target is human CYP2C19 (Homo sapiens, UniProt P33261). Conditions: cited from earlier work.
Chain of human CYP2C19 (P33261 whole entry): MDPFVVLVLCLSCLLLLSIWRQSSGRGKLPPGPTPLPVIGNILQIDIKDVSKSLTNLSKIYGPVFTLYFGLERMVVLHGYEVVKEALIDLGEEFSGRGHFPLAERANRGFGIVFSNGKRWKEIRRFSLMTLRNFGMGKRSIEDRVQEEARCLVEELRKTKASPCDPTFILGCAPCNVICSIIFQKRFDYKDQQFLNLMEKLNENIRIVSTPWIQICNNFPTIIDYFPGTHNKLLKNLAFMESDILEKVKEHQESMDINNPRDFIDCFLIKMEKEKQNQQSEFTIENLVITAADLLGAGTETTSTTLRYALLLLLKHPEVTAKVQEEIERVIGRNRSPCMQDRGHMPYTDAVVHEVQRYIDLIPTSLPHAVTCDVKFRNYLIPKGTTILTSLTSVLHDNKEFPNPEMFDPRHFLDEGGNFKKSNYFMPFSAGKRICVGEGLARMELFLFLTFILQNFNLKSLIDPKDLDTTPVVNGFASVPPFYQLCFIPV
For the next data set, the target named is human CYP3A4 (Homo sapiens, UniProt P08684). Conditions: cited from earlier work.
Chain of human CYP3A4 (P08684 whole entry): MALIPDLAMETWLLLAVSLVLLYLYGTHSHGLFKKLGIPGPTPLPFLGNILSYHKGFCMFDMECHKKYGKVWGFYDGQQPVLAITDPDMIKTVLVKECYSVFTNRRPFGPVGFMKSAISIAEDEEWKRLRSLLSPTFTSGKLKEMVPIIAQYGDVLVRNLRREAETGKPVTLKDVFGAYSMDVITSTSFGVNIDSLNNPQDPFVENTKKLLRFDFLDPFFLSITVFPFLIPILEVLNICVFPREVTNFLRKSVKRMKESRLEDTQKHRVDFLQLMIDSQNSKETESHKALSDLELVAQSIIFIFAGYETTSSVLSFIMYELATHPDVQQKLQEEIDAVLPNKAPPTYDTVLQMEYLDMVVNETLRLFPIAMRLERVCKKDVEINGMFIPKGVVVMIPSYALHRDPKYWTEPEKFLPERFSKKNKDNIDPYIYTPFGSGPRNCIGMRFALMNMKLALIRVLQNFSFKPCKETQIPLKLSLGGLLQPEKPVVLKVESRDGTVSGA
The next data set deals with ischemic stroke. Conditions: rat, cited from earlier work.
Data set [13] has as its system non-selective cation current in primary microglia. Conditions: primary microglia stimulated with LPC; cited from earlier work.

By IC50 is commonly meant the point on the concentration scale where inhibition reaches its midpoint. As for `O=C1CSc2ccccc2N1Cc1cccc(C(F)(F)F)c1` [NS6180, 4-[[3-(trifluoromethyl)phenyl]methyl]-2H-1,4-benzothiazin-3(4H)-one], at human KCa3.1, the 50% inhibitory concentration (IC50) is 9.4 nM. In data set [1] (rat, 10 mg/kg p.o.), the “Cmax-Total (nM) Plasma” value is 186 nM and the “T½” value was 3.8 h.
As usually defined, the EC50 is the concentration giving half of the maximal effect. Usually Tmax stands for the time from dosing to the highest level. In data set [2] (average), `NC(=O)C(c1ccccc1)(c1ccc(F)cc1)c1ccc(F)cc1` [Senicapoc, senicapoc] returned an IC50 of 39 nM. Also, in [2] (representative experiment (n=3), read-out: EC50, production of NO (nitrite)), the concentration for a half-maximal effect (EC50) stood at 0.9 nM. In data set [3] (LPS 3 EU/ml 3 hours, then BzATP 1 mM), this compound had a half-inhibitory concentration (IC50) of 15 nM. In [3] (figure legend: LPS 3 EU/ml for 24 hours (n=3)), the 50% inhibitory concentration (IC50) was 1.3 nM. Further, in [4], the “brain versus plasma levels” value is recorded as “higher levels in brain than plasma”. Also, the “Cmax-Total (nM) Plasma” value in [4] (10 mg/kg p.o., plasma) was 709 nM. The fraction unbound in data set [4] (brain, read-out: % unbound Brain) worked out at 0.008. Also, the time of peak concentration (Tmax) in data set [4] (in vivo, po, 10 mg/kg p.o.) came out at 0.33 h. The half-life in data set [4] (in vivo, po, 10 mg/kg p.o., read-out: T½ (converted)) is 3.1 h. Also, in data set [4] (plasma, read-out: % unbound Plasma), the fraction unbound is 0.015. Further, in data set [1] (rat, four hours post-dose), the free brain concentration is given as 136 nM and the free plasma concentration is 65 nM. Moreover, the “Cerebrospinal fluid (CSF) concentration” value in [1] (rat, four hours post-dosing) is on record as 121 nM. In addition, in data set [1] (rat, one hour post-dose), the free brain concentration was 37 nM and the free plasma concentration is recorded as 17 nM. Further, the “Cerebrospinal fluid (CSF) concentration” value in data set [1] (rat, one hour post-dosing) is 25 nM. The “Cmax-Unbound (nM) CSF” value in [1] (rat, 10 mg/kg p.o., CSF) was 121 nM. Further, in data set [1] (rat, 10 mg/kg p.o.), the “Cmax-Total (nM) Brain” value is on record as 17,000 nM, the “Cmax-Unbound (nM) Brain” value is 136 nM, the “Cmax-Total (nM) Plasma” value is recorded as 2,400 nM and the “Cmax-Unbound (nM) Plasma” value was 65 nM. In data set [1] (rat, 10 mg/kg p.o.), the “T½” value was 1 h. In data set [1] (rat), the “% unbound Plasma” value is listed as 2.7% and the blood-brain barrier crossing entry is recorded as “cross the blood-brain barrier”. For the same compound, the t1/2 in humans in [5] is 552 h. In addition, the “effect on cytochrome P450-dependent enzymes” value in data set [6] was “does not suffer from metabolic instability or effects on cytochrome P450”. Moreover, in data set [7] (1 μM), the “inhibition of ~70 additional neuronal drug targets” value is on record as “None of the targets tested was inhibited”. The off target effects result in data set [7] (at concentrations that block KCa3.1) is listed as “no known off target effects”. Further, the mechanical hypersensitivity entry in data set [8] is recorded as “attenuated”. Besides, the locomotor activity entry in the data set with locomotor activity is given as “did not observe any significant impact; also recorded: did not alter activity”. In [9], the “tolerability / side effects in humans” value is “without any significant side effects; also recorded: well tolerated; also recorded: safe and has a low incidence of side effects”. Moreover, in the data set with sickle cell disease [10], the “hematocrit and hemoglobin levels” value is given as “significantly increased”; the hemolysis entry is “reduced”. Besides, in the data set on sickle cell disease [11], the “pain outcome measures (vaso-occlusive / painful crises)” value is given as “no improvement”. Also, in the data set on sickle cell disease [11] (listed as senicapoc), the “pain outcome measures (vaso-occlusive / painful crises)” value was “no effect”.
In the case of `Clc1ccccc1C(c1ccccc1)(c1ccccc1)n1cccn1` [TRAM-34], in [1] (rat, 10 mg/kg p.o.), the “Cmax-Total (nM) Brain” value is on record as ~2500 nM, the “Cmax-Unbound (nM) Brain” value is recorded as 50 nM, the “Cmax-Total (nM) Plasma” value is given as ~2500 nM and the “Cmax-Unbound (nM) Plasma” value was 50 nM. In [1] (rat, 10 mg/kg p.o.), the “Tmax” value was 0.5 to 1 h and the “T½” value was ~2 h. For the same compound, in data set [1] (rat, 8 hours), the brain concentration was ~1000 nM and the plasma concentration was ~1000 nM. Moreover, in data set [1] (rat, 12 hours), the brain concentration was 400 nM and the plasma concentration is 400 nM. Further, in [1] (rat), the “% unbound Plasma” value was 2% and the “% unbound in plasma” value is listed as “approximately 2%”. Moreover, the half-life in data set [1] (rats) was ~2 h. For the same compound, in data set [12], the half-life is ~2 h. For the same compound, in data set [6], the “effect on cytochrome P450-dependent enzymes” value is listed as “no effect”. On human CYP2B6, the “IC50, CYP2B6” value is reported as “low micromolar range”. In addition, on human CYP2C19, the “IC50, CYP2C19” value was “low micromolar range”. Moreover, on human CYP3A4, the “IC50, CYP3A4” value is “low micromolar range”. In the data set on ischemic stroke (10 and 40 mg/kg i.p.), the neuronal loss entry is reported as “significantly attenuated” and the “post stroke infarct volume” value is listed as “significantly attenuated”. Also, the “outcome when given 12 hours after the ischemic insult” value with ischemic stroke (given 12 hours after insult) is “improved the outcome”. Moreover, in the data set with ischemic stroke, the “extent of microglial ED1 staining” value is reported as “significantly reduced” and the neurological deficit score entry is “improved”.
For the compound charybdotoxin, in [13], the “effect on LPC signals” value is “no effect”.
